Measured values taken from ChEMBL document CHEMBL1201862, “PubChem BioAssay data set” (2004).
Activity calls are given as the source filed them.

Tests used:
[1] = molecular target: T1, RNA-binding protein pos-1 (Caenorhabditis elegans, UniProt G5EF15); experiment: inhibitors of POS-1/mex-3 RNA binding, dose response, biochemical, fluorescence polarization (AID 1964);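 also: purified POS-1 fused to maltose binding protein made in E. coli; potency of compounds blocking POS-1 binding to fluorescent RNA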
T1 sequence (G5EF15 whole entry): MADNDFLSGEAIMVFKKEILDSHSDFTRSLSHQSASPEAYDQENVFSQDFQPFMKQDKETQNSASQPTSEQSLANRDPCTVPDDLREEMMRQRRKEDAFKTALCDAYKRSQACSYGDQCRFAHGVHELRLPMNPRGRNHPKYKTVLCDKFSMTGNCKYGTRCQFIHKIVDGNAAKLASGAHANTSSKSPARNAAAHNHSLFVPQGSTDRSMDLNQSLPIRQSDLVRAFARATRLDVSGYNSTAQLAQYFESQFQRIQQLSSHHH

[2] = molecular target: T2, Zinc finger protein mex-5 (Caenorhabditis elegans, UniProt Q9XUB2); experiment: MEX-5/TCR-2 RNA interaction inhibitors, dose response, biochemical, C. elegans, fluorescence polarization (AID 1960)
T2 sequence (Q9XUB2 whole entry): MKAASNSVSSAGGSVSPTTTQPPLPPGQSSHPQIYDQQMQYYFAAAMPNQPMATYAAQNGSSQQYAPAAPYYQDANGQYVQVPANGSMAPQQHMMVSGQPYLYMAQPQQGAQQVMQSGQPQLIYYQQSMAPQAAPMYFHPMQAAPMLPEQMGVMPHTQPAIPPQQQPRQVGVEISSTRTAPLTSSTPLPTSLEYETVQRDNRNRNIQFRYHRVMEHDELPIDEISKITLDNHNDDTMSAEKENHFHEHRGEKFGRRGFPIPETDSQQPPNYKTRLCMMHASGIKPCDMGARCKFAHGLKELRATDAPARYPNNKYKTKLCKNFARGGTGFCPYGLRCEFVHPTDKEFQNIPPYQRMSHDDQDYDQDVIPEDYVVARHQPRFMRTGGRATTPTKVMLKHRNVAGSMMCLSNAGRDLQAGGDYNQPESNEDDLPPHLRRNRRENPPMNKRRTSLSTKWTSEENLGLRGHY

[3] = molecular target: FAD-linked sulfhydryl oxidase ALR (Homo sapiens, UniProt P55789); experiment: inhibitors of human ALR sulfhydryl oxidase, dose response, biochemical, H2O2 detection, luminescence, cherry-pick (AID 493248)
Paired box protein Pax-8 = Paired box protein Pax-8 (Homo sapiens, UniProt Q06710); experiment: inhibitors of PAX8-driven TPO luciferase reporter, dose response, RMG-I cells, cherry-pick (AID 687027); assay type: functional, cell-based;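 also: luciferase reporter driven by Pax8 target thyroperoxidase promoter measured by SteadyGlo luminescence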
INS1 = experiment: beta cell apoptosis inhibitors, cytokine rescue, dose response, luminescence, retest (AID 449756); assay type: functional, cell-based; conditions: Rattus norvegicus;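 also: cell death triggered by IL-1 beta plus TNF-alpha plus IFN-gamma mixture; protective hits raise ATP signal compared with cytokine alone wells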
Protein skinhead-1 = molecular target: T3, Protein skinhead-1 (Caenorhabditis elegans, UniProt P34707); assay type: functional
T3 sequence (P34707 whole entry): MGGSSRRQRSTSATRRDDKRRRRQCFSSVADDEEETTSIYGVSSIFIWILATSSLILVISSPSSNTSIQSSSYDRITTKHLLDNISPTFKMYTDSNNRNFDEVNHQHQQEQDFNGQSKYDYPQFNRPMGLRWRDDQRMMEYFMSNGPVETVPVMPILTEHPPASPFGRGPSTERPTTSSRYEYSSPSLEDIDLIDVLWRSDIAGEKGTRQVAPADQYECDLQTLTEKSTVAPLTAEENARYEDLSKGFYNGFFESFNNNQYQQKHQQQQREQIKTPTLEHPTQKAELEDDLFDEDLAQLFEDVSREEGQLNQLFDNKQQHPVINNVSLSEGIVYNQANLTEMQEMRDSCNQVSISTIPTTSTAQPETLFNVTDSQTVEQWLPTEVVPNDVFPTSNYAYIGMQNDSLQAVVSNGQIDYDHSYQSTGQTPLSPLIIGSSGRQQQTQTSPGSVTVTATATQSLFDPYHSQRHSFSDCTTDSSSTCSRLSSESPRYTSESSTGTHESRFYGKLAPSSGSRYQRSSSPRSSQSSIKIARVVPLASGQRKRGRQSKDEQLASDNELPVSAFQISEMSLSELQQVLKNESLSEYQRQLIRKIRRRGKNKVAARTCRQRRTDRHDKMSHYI

[4] = Luminescence Cell-Based Dose Response HTS to Identify Activators of Luciferase Translation or Activity in H4 […] Cells. [Related pubchem assays: 1829 (Project Summary), 1814 (Primary HTS)]; assay type: functional
H4 = experiment: Luminescence Cell-Based Dose Response HTS to Identify Activators of 5'UTR Stem-Loop Driven Prion Protein mRNA Translation in H4 Neuroglioblastoma Cells. [Related pubchem assays: 1829 (Project Summary), 1814 (Primary HTS)]; assay type: functional; conditions: Homo sapiens
[5] = cytotoxicity toward NIH3T3 fibroblasts, dose response, counter-screen, cell-based, ATP luminescence, mouse fibroblasts (AID 2010); assay type: functional;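 also: cells exposed to compound for about 90 hours before reading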
[6] = inhibitors of intracellular T. cruzi replication, confirmation, NIH3T3 host cells, beta-gal luminescence (AID 2044); assay type: functional, cell-based;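 also: intracellular parasites grown in NIH/3T3 mouse fibroblasts as host cells; luminescent beta-galactosidase reporter signal from transgenic T. cruzi replicating inside host cells; inhibitors lower the luminescence signal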
[7] = molecular target: T4, Rac GTPase-activating protein 1 (Homo sapiens, UniProt Q9H0H5); experiment: MgcRacGAP GTPase-activating activity inhibitors, confirmation, biochemical, ADP Hunter fluorescence, primary and confirmatory (AID 624330); assay type: functional
T4 sequence (Q9H0H5 whole entry): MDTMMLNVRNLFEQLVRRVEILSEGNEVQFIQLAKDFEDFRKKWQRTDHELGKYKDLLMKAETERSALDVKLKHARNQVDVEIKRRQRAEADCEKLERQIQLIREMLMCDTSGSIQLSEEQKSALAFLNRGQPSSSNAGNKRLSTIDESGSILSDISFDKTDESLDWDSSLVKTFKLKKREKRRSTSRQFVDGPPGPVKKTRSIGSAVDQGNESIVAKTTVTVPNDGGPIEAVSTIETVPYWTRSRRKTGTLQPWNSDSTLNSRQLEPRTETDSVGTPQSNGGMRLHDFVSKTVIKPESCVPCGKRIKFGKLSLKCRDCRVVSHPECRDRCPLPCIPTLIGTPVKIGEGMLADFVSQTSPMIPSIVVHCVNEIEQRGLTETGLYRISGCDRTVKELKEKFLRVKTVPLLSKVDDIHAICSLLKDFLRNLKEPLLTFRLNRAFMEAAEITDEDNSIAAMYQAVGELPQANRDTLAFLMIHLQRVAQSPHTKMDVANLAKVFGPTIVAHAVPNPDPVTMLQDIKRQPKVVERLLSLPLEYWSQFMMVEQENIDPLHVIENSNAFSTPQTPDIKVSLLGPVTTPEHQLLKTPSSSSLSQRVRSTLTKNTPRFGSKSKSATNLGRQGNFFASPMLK

Sequence of FAD-linked sulfhydryl oxidase ALR (P55789 whole entry): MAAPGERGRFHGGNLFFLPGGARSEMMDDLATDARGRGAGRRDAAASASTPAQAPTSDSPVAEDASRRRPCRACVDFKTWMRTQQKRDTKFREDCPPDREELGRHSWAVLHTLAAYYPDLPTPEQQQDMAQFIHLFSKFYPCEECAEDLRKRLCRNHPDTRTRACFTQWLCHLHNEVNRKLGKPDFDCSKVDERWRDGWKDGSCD
Sequence of Paired box protein Pax-8 (Q06710 whole entry): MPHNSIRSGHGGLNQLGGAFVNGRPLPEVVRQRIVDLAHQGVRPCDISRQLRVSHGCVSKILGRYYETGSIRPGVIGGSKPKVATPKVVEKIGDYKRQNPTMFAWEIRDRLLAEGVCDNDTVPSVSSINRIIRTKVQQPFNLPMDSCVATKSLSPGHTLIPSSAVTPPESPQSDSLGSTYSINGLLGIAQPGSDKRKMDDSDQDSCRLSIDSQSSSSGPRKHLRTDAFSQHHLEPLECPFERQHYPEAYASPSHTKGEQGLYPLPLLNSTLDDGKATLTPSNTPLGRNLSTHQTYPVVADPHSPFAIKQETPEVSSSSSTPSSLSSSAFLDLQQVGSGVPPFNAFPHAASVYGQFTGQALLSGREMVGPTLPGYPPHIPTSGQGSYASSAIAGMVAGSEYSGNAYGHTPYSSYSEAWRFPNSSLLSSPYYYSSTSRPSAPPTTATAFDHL

Compound: O=C(N/N=C\c1ccc(-c2ccc(Cl)c(Cl)c2)o1)C(=O)N1CCCC1
- EC50 [1]: 49.5 µM (active)
- EC50 [2]: 29.6 µM (active)

Compound: O=C(Nc1c(C(=O)O)[nH]c2ccccc12)NC1CCCCC1
- AC50 [3]: 1.26 µM (active)

Compound: C[C@@H]1CN([C@H](C)CO)C(=O)c2cc(NC(=O)Nc3ccccc3)ccc2O[C@@H](C)CCCCO[C@H]1CN(C)Cc1ccc(Cl)c(Cl)c1
- AC50 (Paired box protein Pax-8): 7.42 µM (active)

Compound: COc1cc(/C=C/c2cc(C(=O)O)c3ccccc3n2)cc(OC)c1O
- AC50 [3]: 0.141 µM (active)

Compound: O=[N+]([O-])c1cccc(-c2cn3nc(-c4ccccc4)c(-c4ccccc4)nc3n2)c1
- EC50 [1]: > 300 µM (not active)
- AC50 (INS1): 11 µM (active)
- EC50 [2]: 99 µM (active)

Compound: CC1CCC2C(C1)Nc1c(C(=O)O)cccc1C2(C)C (stereo unspecified)
- AC50 [3]: 4.55 µM (active)

Compound: O=C(NC1CCN(C(=S)Nc2ccc(Cl)cc2)CC1)c1ccco1
- IC50 (Protein skinhead-1): > 100 µM (inactive)

Compound: O=C(Nc1nc(-c2ccccc2)ns1)c1cccs1
- AC50 [3]: 81 µM (active)
- EC50 [4]: 1.32 µM (active)
- EC50 (H4): > 120 µM (not active)

Compound: COc1ccc(C2(c3ccc(OC)cc3)NC(=O)N(CC(=O)NC3CCS(=O)(=O)C3)C2=O)cc1 (stereo unspecified)
- IC50 (Protein skinhead-1): > 100 µM (inactive)

Compound: CCCS(=O)(=O)NCc1ccc2c(c1)cc(C)n2C
- IC50 (Protein skinhead-1): > 100 µM (inactive)

Compound: Cc1cc(S(=O)(=O)Nc2ccc(N(C)C)cc2)c(C)s1
- AC50 [3]: 0.704 µM (active)

Compound: O=C(Cn1cc(C=C2C(=O)NC(=O)NC2=O)c2ccccc21)NCC1CCCO1 (stereo unspecified)
- EC50 [1]: 16.7 µM (active)
- EC50 [2]: 10.1 µM (active)

Compound: COc1ccc(-c2nn(CC(=O)Nc3ccc(Cl)c(Cl)c3)c(=O)c3ccccc23)cc1
- IC50 (Protein skinhead-1): > 100 µM (inactive)

Compound: Brc1ccc(-[n+]2c(-c3ccccc3)cc(-c3ccccc3)cc2-c2ccccc2)cc1.[O-][Cl+3]([O-])([O-])[O-]
- AC50 (INS1): 2.04 µM (active)

Compound: CCOC(=O)N1CCN(S(=O)(=O)c2ccc(C(=O)NNc3nc4ccc(Cl)cc4s3)cc2)CC1
- AC50 (INS1): 3.39 µM (active)

Compound: CCOCCCNc1nc2nc3ccc(C)cn3c(=O)c2cc1C(=O)NCC1CCCO1 (stereo unspecified)
- EC50 [1]: > 300 µM (not active)
- EC50 [2]: > 300 µM (not active)

Compound: COC(=O)c1c(-c2ccccc2)noc1-c1ccccc1
- IC50 (Protein skinhead-1): 58.6 µM (inactive)

Compound: Cc1ccc(S(=O)(=O)N2CC=C(c3c(C)n(C)c4ccccc34)CC2)cc1
- IC50 (Protein skinhead-1): > 100 µM (inactive)

Compound: Fc1ccc(Nc2c3c(nc4ccccc24)CCC3)cc1
- AC50 [3]: 6.31 µM (active)
- EC50 [5]: > 60 µM (inconclusive)
- EC50 [6]: 2.48 µM (active)

Compound: ClCc1nc2ccccc2n1Cc1ccccc1
- EC50 [1]: 2.24 µM (inconclusive)
- EC50 [2]: 3.93 µM (inconclusive)

Compound: CCCCn1ccnc1C(=O)c1cccc(S(=O)(=O)N2c3ccccc3CC2C)c1 (stereo unspecified)
- IC50 (Protein skinhead-1): > 100 µM (inactive)

Compound: O=C(NCc1ccccn1)C1Nc2ccc(OC(F)(F)F)cc2C2C=CCC12 (stereo unspecified)
- EC50 [1]: > 300 µM (not active)
- EC50 [2]: > 300 µM (not active)

Compound: Cc1cc(C)c(OCCOCCN2CCNCC2)c(C)c1
- IC50 (Protein skinhead-1): > 100 µM (inactive)

Compound: Cc1cc(C=C2C(=O)c3ccccc3C2=O)c(C)n1-c1ccc(Cl)cc1
- EC50 [1]: > 300 µM (not active)
- EC50 [2]: > 300 µM (not active)

Compound: COc1ccc2c(-c3ccccc3)cc(SCC(N)=O)nc2c1
- EC50 [1]: > 300 µM (not active)
- EC50 [2]: > 300 µM (not active)

Compound: CCN(CC)S(=O)(=O)c1ccc(/N=N/c2c(C)[nH]n(C(N)=S)c2=O)cc1
- AC50 [3]: 0.782 µM (active)

Compound: Cc1cc(C)cc(N2C(=O)CSC2c2ccccn2)c1 (stereo unspecified)
- AC50 [3]: 0.731 µM (active)

Compound: Cc1cccn2c(=O)c3cc(C(=O)NCc4ccco4)c(=N)n(C(C)C)c3nc12
- EC50 [1]: 40.5 µM (active)
- EC50 [2]: 45.5 µM (active)

Compound: Cc1ccc(CSCC(=O)N2CCOCC2)cc1
- IC50 (Protein skinhead-1): > 100 µM (inactive)

Compound: CN1C(=O)N(c2ccccc2)C(Nc2nncs2)C1(C)C (stereo unspecified)
- IC50 (Protein skinhead-1): > 100 µM (inactive)

Compound: CCC(=O)Nc1cc(C)c(NC(=O)CCc2ccccc2)cn1
- EC50 [1]: 24 µM (active)
- EC50 [2]: 26 µM (inconclusive)

Compound: C[C@@H]1CCCCO[C@@H](CN(C)C(=O)Cc2ccccc2)[C@@H](C)CN([C@@H](C)CO)C(=O)c2cc(NC(=O)Nc3ccc(C(F)(F)F)cc3)ccc2O1
- AC50 (Paired box protein Pax-8): 4.87 µM (active)

Compound: CCN(CC)c1ccc(CN2CCC(C(=O)NCc3ccc(C)cc3)CC2)cc1
- AC50 [3]: 5.7 µM (active)

Compound: CN1c2ccc(-c3ccc(C#N)cc3)cc2[C@@H]2[C@@H](CCN2C(=O)NC2CCCCC2)[C@@H]1CO
- AC50 (Paired box protein Pax-8): 19.9 µM (active)

Compound: Cc1cc(NS(=O)(=O)c2ccc(NC(=O)c3cc(-c4cccnc4)nc4ccc(Cl)cc34)cc2)no1
- IC50 (Protein skinhead-1): > 100 µM (inactive)

Compound: O=[N+]([O-])c1cc2c(cc1Br)-c1ccccc1C2
- IC50 (Protein skinhead-1): > 100 µM (inactive)

Compound: CC(C)(C)OC(=O)NCCCC1=CC2=CC(=O)C(C)(OC(=O)C3CCCC3)C(=O)C2=CO1 (stereo unspecified)
- EC50 [1]: 18.8 µM (active)
- EC50 [2]: 18.7 µM (active)

Compound: COc1ccc(N2C(=O)CSC2c2ccccc2[N+](=O)[O-])cc1 (stereo unspecified)
- AC50 [3]: 4.55 µM (active)

Compound: COc1cc(/C=N/NC(=O)c2cccc(N3CCCC3=O)c2)ccc1O
- AC50 [3]: 2.71 µM (active)
- IC50 [7]: 30.9 µM (active)
